Data set [1] can be described thus: Antiproliferative activity against human EBC1 cells after 72 hrs by SRB assay. The settings on record: EBC-1, 72 h.
Data set [2] has as its target Vascular endothelial growth factor receptor 1 (Homo sapiens, UniProt P17948). Kind of data set: Inhibition of recombinant human Flt-1 using poly (Glu,Tyr)4:1 as substrate after 60 mins by ELISA.
Data set [3] in a line: Apparent permeability from basolateral to apical side in human Caco2 cells after 35 to 95 mins by LC-MS/MS analysis. The format is ADME, cell-based. The settings on record: Caco-2. On the technique in general: Caco-2 monolayers are a common model of the intestinal barrier.
Data set [4] is described as follows: Antitumor activity against human EBC1 cells xenografted in nude mouse assessed as tumor growth inhibition at 5 mg/kg, po qd administered for 21 days relative to control. Type of data set: functional. The settings on record: EBC-1, po, 504 h, read-out: TGI.
The target in data set [5] is T1, Receptor-type tyrosine-protein kinase FLT3 (Homo sapiens, UniProt P36888).
T1 sequence (P36888 whole entry): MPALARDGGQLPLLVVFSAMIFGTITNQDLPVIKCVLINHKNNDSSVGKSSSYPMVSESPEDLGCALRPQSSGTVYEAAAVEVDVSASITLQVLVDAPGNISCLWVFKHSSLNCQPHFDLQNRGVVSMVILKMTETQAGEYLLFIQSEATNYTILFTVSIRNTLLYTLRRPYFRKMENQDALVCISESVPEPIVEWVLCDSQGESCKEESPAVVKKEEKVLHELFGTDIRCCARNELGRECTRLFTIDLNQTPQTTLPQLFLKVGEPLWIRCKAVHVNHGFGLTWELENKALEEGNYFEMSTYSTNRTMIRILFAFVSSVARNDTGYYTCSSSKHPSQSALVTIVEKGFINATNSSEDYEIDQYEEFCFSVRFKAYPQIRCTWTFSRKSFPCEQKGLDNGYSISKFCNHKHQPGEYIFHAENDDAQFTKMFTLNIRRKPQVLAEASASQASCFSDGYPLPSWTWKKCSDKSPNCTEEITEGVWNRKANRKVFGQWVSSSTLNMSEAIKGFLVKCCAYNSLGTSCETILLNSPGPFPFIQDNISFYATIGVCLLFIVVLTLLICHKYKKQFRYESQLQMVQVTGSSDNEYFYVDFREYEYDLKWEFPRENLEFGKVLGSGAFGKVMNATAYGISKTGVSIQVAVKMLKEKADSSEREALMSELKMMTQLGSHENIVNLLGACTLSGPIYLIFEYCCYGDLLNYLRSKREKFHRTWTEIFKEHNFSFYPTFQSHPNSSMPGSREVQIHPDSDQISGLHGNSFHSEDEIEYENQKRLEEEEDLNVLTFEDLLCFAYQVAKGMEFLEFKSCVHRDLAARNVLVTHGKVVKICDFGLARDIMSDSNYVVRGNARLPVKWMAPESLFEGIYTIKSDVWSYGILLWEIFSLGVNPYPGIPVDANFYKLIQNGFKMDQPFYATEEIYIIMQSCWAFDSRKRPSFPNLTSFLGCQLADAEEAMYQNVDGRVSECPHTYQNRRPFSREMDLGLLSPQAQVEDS
Kind of data set: Inhibition of recombinant human Flt-3 using poly (Glu,Tyr)4:1 as substrate after 60 mins by ELISA. On the technique in general: ELISA stands for enzyme-linked immunosorbent assay.

Data set [6] addresses Platelet-derived growth factor receptor beta (Homo sapiens, UniProt P09619). The data set is described as follows: Inhibition of recombinant human PDGFR-beta using poly (Glu,Tyr)4:1 as substrate after 60 mins by ELISA.
Data set [7] deals with Insulin-like growth factor 1 receptor (Homo sapiens, UniProt P08069). The data set is described as follows: Inhibition of recombinant human IGF1R using poly (Glu,Tyr)4:1 as substrate after 60 mins by ELISA.
A short description of data set [8]: Intrinsic clearance in mouse liver microsomes at 0.1 uM after 7 to 60 mins by LC-MS/MS analysis. Type of data set: ADME. (In general: Microsomes from liver hold many membrane-bound enzymes, among them those of drug oxidation.)
For data set [9], the target named is Tyrosine-protein kinase ABL1 (Homo sapiens, UniProt P00519). The data set is described as follows: Inhibition of recombinant human ABL using poly (Glu,Tyr)4:1 as substrate after 60 mins by ELISA.
Tyrosine-protein kinase ABL1, sequence (P00519 whole entry): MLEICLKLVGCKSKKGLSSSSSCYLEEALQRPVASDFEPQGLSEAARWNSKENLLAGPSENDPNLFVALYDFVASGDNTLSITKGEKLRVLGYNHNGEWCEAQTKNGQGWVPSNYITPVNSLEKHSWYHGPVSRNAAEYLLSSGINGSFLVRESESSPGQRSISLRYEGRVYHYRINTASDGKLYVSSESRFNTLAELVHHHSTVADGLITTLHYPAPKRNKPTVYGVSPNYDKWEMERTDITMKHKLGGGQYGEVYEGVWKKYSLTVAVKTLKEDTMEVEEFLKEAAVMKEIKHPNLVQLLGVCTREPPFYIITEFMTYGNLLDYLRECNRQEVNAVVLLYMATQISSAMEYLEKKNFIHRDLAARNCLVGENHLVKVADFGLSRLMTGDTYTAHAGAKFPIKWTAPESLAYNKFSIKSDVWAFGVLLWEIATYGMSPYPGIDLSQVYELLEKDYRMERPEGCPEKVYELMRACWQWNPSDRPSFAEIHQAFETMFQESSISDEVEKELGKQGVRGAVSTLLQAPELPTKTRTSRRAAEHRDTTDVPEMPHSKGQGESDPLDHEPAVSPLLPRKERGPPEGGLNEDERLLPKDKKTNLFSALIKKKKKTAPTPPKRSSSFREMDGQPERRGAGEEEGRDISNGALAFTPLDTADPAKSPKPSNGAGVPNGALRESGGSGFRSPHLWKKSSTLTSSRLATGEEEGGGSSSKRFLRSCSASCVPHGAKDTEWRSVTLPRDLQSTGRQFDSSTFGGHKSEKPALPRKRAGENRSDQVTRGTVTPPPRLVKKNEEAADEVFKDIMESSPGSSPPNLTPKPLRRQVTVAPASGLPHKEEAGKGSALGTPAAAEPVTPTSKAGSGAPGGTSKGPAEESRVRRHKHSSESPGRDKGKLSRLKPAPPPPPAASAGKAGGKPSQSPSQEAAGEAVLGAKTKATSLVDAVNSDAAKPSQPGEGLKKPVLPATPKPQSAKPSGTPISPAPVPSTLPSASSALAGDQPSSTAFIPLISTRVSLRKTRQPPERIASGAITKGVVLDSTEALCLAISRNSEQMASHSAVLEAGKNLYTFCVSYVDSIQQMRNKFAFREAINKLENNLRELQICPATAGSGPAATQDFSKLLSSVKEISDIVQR
For data set [10], the target named is Epidermal growth factor receptor (Homo sapiens, UniProt P00533). The data set is described as follows: Inhibition of recombinant human EGFR using poly (Glu,Tyr)4:1 as substrate after 60 mins by ELISA.
Epidermal growth factor receptor, sequence (P00533 whole entry): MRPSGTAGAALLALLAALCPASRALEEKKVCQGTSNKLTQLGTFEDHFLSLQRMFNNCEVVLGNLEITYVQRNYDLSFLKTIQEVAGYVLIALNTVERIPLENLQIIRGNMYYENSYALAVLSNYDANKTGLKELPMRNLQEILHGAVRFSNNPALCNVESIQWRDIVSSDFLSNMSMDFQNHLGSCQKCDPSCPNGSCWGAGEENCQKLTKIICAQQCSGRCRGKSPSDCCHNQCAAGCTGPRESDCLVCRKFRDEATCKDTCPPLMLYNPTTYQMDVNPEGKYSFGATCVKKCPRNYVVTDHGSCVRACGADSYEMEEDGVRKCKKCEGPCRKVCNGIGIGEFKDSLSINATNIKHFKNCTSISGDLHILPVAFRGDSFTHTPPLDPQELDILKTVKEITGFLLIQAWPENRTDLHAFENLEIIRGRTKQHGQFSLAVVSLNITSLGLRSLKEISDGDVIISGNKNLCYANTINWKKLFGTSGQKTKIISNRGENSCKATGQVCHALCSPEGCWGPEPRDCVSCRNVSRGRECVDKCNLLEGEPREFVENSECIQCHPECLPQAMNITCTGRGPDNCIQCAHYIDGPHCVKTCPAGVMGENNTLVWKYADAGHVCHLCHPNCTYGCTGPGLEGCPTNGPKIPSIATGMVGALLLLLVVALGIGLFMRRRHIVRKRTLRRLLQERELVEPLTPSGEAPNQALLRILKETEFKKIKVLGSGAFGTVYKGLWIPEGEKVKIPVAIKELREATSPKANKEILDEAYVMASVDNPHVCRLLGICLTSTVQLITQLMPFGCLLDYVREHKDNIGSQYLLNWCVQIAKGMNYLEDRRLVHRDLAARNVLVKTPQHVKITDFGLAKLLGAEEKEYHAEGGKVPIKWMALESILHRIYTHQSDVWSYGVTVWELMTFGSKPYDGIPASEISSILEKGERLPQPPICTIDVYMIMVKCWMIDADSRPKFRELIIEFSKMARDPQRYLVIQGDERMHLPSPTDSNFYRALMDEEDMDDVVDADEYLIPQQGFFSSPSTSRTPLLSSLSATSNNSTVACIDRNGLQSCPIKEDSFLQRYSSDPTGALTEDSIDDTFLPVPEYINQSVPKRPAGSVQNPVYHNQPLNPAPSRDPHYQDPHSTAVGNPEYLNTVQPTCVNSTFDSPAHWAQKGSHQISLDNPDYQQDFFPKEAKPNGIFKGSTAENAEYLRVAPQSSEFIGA
For data set [11], the system named is Mus musculus. Kind of data set: Toxicity in nude mouse xenografted with human EBC1 cells assessed as body weight at 5 and 40 mg/kg, po qd administered for 21 days. The settings on record: in vivo, 504 h. The format is organism-based.
Data set [12] in a line: Antitumor activity against human EBC1 cells xenografted in nude mouse assessed as tumor growth inhibition at 40 mg/kg, po qd administered for 21 days relative control. The format is functional. The settings on record: EBC-1, po, 504 h, read-out: TGI.
The target in data set [13] is Ephrin type-A receptor 2 (Homo sapiens, UniProt P29317). Kind of data set: Inhibition of recombinant human EPH-A2 using poly (Glu,Tyr)4:1 as substrate after 60 mins by ELISA.
Data set [14] concerns the target T2, Tyrosine-protein kinase Mer (Homo sapiens, UniProt Q12866).
T2 sequence (Q12866 whole entry): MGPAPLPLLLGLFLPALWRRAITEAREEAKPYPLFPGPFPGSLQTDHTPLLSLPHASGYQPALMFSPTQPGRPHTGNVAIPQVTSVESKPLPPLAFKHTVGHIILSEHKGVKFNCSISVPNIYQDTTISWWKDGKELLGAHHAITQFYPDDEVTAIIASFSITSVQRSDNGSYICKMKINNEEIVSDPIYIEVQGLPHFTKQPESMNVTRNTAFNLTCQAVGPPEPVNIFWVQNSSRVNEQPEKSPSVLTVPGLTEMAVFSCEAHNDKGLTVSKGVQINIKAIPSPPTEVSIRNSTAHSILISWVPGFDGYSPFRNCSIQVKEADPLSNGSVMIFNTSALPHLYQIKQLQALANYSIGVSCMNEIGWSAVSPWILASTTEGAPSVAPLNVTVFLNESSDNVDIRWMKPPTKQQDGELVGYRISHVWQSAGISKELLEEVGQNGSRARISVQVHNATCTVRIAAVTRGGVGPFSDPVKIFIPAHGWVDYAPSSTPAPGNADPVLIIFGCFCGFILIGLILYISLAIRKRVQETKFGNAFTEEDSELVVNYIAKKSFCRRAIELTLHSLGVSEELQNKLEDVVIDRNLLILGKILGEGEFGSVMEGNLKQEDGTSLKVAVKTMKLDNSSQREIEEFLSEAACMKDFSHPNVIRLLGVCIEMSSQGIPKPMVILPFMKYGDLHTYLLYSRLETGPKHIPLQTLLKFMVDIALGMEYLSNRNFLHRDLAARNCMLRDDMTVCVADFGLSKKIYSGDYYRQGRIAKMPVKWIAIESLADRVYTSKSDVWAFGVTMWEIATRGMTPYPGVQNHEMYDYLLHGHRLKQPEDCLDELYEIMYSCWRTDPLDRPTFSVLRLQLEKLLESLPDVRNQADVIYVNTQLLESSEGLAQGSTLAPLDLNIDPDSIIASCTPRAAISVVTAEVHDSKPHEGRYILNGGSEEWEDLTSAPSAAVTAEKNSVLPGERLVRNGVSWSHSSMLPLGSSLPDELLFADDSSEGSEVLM
The data set is described as follows: Inhibition of recombinant human Mer using poly (Glu,Tyr)4:1 as substrate after 60 mins by ELISA.

Data set [15] in a line: Solubility of compound in TRIS buffer by nephelometric analysis in presence of 0.1% BSA. Conditions: TRIS buffer with 0.1% BSA. Type of data set: physicochemical.

Consider 1 molecule from ChEMBL document CHEMBL3758137 (Eur J Med Chem, 2016).

The IC50 is the concentration needed to halve the response being measured. By Papp B→A is commonly meant the apparent permeability from the basolateral to the apical side of a cell layer. Usually solubility (kinetic) stands for the concentration staying in solution when a stock, usually in DMSO, is diluted into the medium.

Platelet-derived growth factor receptor beta, sequence (P09619 whole entry): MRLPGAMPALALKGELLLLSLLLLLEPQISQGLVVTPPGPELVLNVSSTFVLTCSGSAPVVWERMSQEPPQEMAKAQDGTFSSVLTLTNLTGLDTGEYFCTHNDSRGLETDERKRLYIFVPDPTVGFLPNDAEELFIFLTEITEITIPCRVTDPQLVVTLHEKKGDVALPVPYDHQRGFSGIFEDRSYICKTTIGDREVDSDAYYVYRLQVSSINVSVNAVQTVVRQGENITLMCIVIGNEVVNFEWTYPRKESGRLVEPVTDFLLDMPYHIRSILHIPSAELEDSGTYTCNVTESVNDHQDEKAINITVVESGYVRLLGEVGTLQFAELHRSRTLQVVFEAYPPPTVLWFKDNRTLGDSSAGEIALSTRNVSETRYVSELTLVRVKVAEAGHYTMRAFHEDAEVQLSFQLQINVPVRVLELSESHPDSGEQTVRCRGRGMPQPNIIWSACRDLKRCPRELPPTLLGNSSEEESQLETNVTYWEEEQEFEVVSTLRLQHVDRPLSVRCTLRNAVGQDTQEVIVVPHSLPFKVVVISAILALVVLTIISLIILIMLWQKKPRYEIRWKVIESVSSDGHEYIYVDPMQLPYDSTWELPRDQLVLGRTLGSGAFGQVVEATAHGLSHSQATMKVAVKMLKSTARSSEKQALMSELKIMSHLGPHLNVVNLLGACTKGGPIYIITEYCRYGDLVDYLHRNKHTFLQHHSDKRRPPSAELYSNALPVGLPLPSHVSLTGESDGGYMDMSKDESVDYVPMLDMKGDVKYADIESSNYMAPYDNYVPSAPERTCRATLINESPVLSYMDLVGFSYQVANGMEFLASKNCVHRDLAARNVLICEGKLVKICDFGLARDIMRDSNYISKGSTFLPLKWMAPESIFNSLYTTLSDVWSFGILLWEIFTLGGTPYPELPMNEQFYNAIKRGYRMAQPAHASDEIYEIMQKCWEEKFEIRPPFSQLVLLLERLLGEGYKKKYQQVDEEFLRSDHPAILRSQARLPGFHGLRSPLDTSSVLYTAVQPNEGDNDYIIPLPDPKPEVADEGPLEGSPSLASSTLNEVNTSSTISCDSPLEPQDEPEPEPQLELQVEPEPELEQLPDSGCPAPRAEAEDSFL
Vascular endothelial growth factor receptor 1, sequence (P17948 whole entry): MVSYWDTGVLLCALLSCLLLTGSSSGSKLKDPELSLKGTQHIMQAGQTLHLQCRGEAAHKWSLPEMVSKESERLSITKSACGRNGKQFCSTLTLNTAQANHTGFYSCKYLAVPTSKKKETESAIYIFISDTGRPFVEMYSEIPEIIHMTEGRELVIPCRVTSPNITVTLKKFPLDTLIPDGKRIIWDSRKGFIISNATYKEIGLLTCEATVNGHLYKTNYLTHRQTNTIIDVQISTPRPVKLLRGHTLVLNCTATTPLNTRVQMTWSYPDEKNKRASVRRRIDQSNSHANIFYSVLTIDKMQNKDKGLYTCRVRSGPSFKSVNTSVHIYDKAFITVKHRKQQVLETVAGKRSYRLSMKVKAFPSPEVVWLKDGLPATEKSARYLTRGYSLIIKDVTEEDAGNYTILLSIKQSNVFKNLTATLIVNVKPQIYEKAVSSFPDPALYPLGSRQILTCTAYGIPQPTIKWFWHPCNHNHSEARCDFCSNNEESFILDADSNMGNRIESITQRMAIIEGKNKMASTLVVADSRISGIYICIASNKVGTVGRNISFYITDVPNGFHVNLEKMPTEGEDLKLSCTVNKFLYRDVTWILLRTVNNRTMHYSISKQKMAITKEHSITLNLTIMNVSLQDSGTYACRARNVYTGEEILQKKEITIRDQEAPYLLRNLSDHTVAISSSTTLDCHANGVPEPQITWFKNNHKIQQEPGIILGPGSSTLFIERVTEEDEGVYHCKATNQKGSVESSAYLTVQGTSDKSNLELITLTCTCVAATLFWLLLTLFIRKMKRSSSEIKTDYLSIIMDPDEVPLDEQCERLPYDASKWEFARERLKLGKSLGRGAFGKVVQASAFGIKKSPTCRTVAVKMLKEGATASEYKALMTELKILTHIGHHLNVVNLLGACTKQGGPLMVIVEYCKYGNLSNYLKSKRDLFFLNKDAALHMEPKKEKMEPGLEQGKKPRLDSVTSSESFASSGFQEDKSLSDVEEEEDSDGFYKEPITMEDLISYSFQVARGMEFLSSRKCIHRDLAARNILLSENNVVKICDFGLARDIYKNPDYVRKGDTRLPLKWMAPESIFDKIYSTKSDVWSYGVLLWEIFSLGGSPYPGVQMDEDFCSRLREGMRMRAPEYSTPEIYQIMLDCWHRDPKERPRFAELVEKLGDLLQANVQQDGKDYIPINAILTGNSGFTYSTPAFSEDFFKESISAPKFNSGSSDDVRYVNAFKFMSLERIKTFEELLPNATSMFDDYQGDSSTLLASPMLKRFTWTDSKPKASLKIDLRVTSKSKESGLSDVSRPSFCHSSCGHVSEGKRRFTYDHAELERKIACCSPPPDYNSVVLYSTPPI

On to `Cn1cc(-c2cnc(Nc3cccc(Cn4nc(-c5cnn(C)c5)ccc4=O)c3)nc2)cn1`, for which the IC50 in [1] is 31.2 nM; in data set [2], above 1000 nM; in data set [5] it was above 1000 nM; in data set [6] it was above 1000 nM; in data set [7] it was above 1000 nM; in data set [9], above 1000 nM. For the same molecule, the IC50 in [10], in data set [13] and in data set [14] was above 1000 nM each time. The Papp B→A in [3] worked out at 22.8 ×10⁻⁶ cm/s. For the same molecule, the inhibition in vivo at 5 mg/kg in data set [4] was determined as 42.5%. For the same molecule, the CLH in data set [8] came out at 16 mL/min/g. Besides, in data set [11], the Activity result was “Non-toxic”. Besides, in data set [12], the inhibition in vivo at 40 mg/kg is 68.6%. In addition, in data set [15], the kinetic solubility stood at 51 µM.
